Measured values published in patent US20190060371A1, “METHODS FOR CONTROLLED PROLIFERATION OF VESTIBULAR STEM CELLS / GENERATING INNER EAR HAIR CELLS USING WNT AND TGFBETA-INHIBITION” (Frequency Therapeutics, Inc., priority 2016, published 2019).
Entries after “also recorded” stand apart in the source; their conditions may differ.

Tests used:
[1] = test system: supporting cell/stem cell; assay: Expansion of Sox2 and Sox9 positive cells from vestibular organs in 3D Matrigel culture; assay type: cell-based, neonatal mice; details: for cell growth when added to Wnt agonism (C) (total cells, FIG. 2): added to GF+C (CHIR99021), D10; for colony size compared to Wnt agonism alone (FIG. 5): TGF-beta inhibitor added to CHIR99021 in a background of GF
Description: Isolation of stem cells from the inner ear: All animal studies were conducted under an approved institutional protocol according to National Institutes of Health guidelines. For experiments with neonatal mice (postnatal days 1-3), the vestibular organs were dissected in HBSS. The vestibular organs were then treated with TrypLE (Life Technologies) for 15-20 minutes at […]. Single cells obtained by mechanical trituration were filtered (40 μm) and suspended in Matrigel (Corning) for 3D culture. Cells were cultured in a 1:1 mixture of DMEM and F12, supplemented with Glutamax (GIBCO), N2, B27 (Invitrogen), EGF (50 ng/mL; Chemicon), bFGF (50 ng/mL; Chemicon), IGF1 (50 ng/mL; Chemicon) and a composition comprising the following agents: CHIR99021 (a Wnt activator), 616452 (a TGF-beta inhibitor), Noggin (a BMP4 inhibitor), VPA (HDAC inhibitor), and combinations there. Media were changed every other day. Total cells were quantified after 10 days (D10) in culture in multiple conditions. (i) GF; ([…]6); wherein On D10, cell colonies were dissociated into single cells using TrypLE (Gibco). The cells were then stained with propidium iodide (PI) and analyzed using a flow cytometer expression. The number of cells were quantified. […] Also on D10, cells were stained with Sox2 (data not shown), as well as Sox9, Rhodamine Phalloidin (stains F-actin), and DAPI (nuclear stain) (see FIG. 3) to assess the identity of the cell populations. Colonies were visualized using confocal microscopy. Sox2 and Sox9 are stem cell markers in the balance organs.

progenitor colonies = assay: Differentiation of Sox2 and Sox9 progenitor cell colonies into hair cells; assay type: cell-based, neonatal mice; details: gamma secretase inhibition; confocal images
Description: Isolation of stem cells from the inner ear: All animal studies were conducted under an approved institutional protocol according to National Institutes of Health guidelines. For experiments with neonatal mice (postnatal days 1-3), the vestibular organs were dissected in HBSS. The vestibular organs were then treated with TrypLE (Life Technologies) for 15-20 minutes at […]. Single cells obtained by mechanical trituration were filtered (40 μm) and suspended in Matrigel (Corning) for 3D culture.
Differentiation of Sox2 and Sox9 Progenitor Cells Stem cell colonies were differentiated in a 1:1 mixture of DMEM and F12, supplemented with Glutamax (GIBCO), N2, B27 (Invitrogen), with the addition of molecules that drive differentiation, or after removal of growth factors without the addition of molecules that drive differentiation. Small molecules were added to the culture to test their effect on differentiation.
Indicative of hair cells, the cells express Myo VIIa (green) and have actin hair bundles (red).

| SMILES | cell growth when added to Wnt agonism (C) (total cells, FIG. 2) ([1]; flow cytometer) | colony size compared to Wnt agonism alone (FIG. 5) [1] | also measured |
| --- | --- | --- | --- |
| Cc1c[nH]c(-c2cnc(NCCNc3ccc(C#N)cn3)nc2-c2ccc(Cl)cc2Cl)n1 [CHIR99021] | – | – | supporting cell/stem cell growth (total cells, FIG. 2) ([1]; added to GF (EGF, FGF, IGF), 10 days (D10), flow cytometer): promoted supporting cell/stem cell growth; supporting cell/stem cell growth and colony formation (FIG. 5) ([1]; in a background of GF): promoted supporting cell/stem cell growth and colony formation |
| CCCC(CCC)C(=O)O [VPA, valproic acid] | inhibited cell growth | – | – |
| C[C@H](NC(=O)[C@@H](O)c1cc(F)cc(F)c1)C(=O)N[C@@H]1C(=O)N(C)c2ccccc2-c2ccccc21 [LY411575] | – | – | conversion of colonies into hair cells (Myosin VIIA, actin hair bundles; FIG. 4) (progenitor colonies): differentiated into high purity populations of hair cells; also recorded: converted into high purity hair cell populations |
| NC(=O)c1ccc(-c2nc(-c3ccc4c(c3)OCO4)c(-c3ccccn3)[nH]2)cc1 [SB-431542, 4-[4-(1,3-Benzodioxol-5-yl)-5-(2-pyridinyl)-1H-imidazol-2-yl]-benzamide] | – | larger supporting cell/stem cell colonies | – |
| Cc1cccc(-c2nn(C(=S)Nc3ccccc3)cc2-c2ccnc3ccccc23)n1 [Compound A-83-01, 3-(6-Methylpyridin-2-yl)-4-(4-quinolyl)-1-phenylthiocarbamoyl-1H-pyrazole] | – | larger colonies | colony size compared to Wnt agonism alone (FIG. 5) ([1]; listed as A 83-01): larger supporting cell/stem cell colonies |
| Cc1cccc(-c2n[nH]cc2-c2ccc3ncccc3n2)n1 [Compound 616452, 2-(3-(6-Methylpyridin-2-yl)-1H-pyrazol-4-yl)-1,5-naphthyridine] | improved stem cell growth | – | – |
